Source: PubChem BioAssay (NCI)
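Tested at 5 concentrations; 48 h exposure; 96-well plates; endpoints linearly interpolated, else capped at highest concentration. The concentration for 50% growth inhibition is given as GI50. At the TGI there is no net growth.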

Tests used:
Test in all cases: DTP human tumour cell line panel, 48 h
SW-620 colon = system: SW-620 colon
RPMI-8226 leukemia = system: RPMI-8226 leukemia
NCI/ADR-RES ovarian = system: NCI/ADR-RES ovarian
U251 CNS = system: U251 CNS
SNB-19 CNS = system: SNB-19 CNS
SF-539 CNS = system: SF-539 CNS
HS 578T breast = system: HS 578T breast
KM12 colon = system: KM12 colon
PC-3 prostate = system: PC-3 prostate
CCRF-CEM leukemia = system: CCRF-CEM leukemia

Compound	TGI (SW-620 colon) [µM]	TGI (RPMI-8226 leukemia) [µM]	TGI (NCI/ADR-RES ovarian) [µM]	TGI (U251 CNS) [µM]	TGI (SNB-19 CNS) [µM]	TGI (SF-539 CNS) [µM]	TGI (HS 578T breast) [µM]	TGI (KM12 colon) [µM]	TGI (PC-3 prostate) [µM]	TGI (CCRF-CEM leukemia) [µM]	GI50 (SW-620 colon) [µM]	GI50 (RPMI-8226 leukemia) [µM]	GI50 (NCI/ADR-RES ovarian) [µM]	GI50 (U251 CNS) [µM]	GI50 (SNB-19 CNS) [µM]	GI50 (SF-539 CNS) [µM]	GI50 (HS 578T breast) [µM]	GI50 (KM12 colon) [µM]	GI50 (PC-3 prostate) [µM]	GI50 (CCRF-CEM leukemia) [µM]
Cc1nc2ncn3c(c-2c1Cc1ccccc1)NC=C(O)N3	> 100	> 100	> 100	> 100	> 100	> 100	> 100	> 100	> 100	> 100										
COC(=O)C[C@H](COCc1ccccc1)NC(=O)C[C@H](COCc1ccccc1)NC(=O)OC(C)(C)C	> 100	> 100	72.2	67.7	44.2	> 100	67.1	> 100	77.6	> 100										
CCCCCOC(=O)c1cc2cc(CCl)ccc2oc1=O	56.6	> 80.1	53.3	34.9	> 76.8	> 93.3	> 42.8	31.2	15.2	> 81.1										
Cc1cc(=O)[nH]c(/N=C(\N)Nc2ccc(Cl)cc2)n1	> 100	> 100	> 100	> 100	> 100		> 100	> 100	> 100	> 100										
Nc1ccc(-c2nc3cc(F)ccc3s2)cc1CO	> 100	> 100	> 100	41.5	> 90.6	46.7	> 100	> 100	> 76.1	> 100										
O=C1/C(=C\c2ccc(F)cc2)CCOc2c1ccc1ccccc21	> 100	9.45	45.9	> 100	> 100	48.5	> 84.9	31.5	> 100	35.9										
COc1ccc(C(=O)N(C(=O)N2CCN(c3ccccc3)CC2)S(=O)(=O)c2ccccc2)cc1	> 100		66.7	35.3	74.9	35.9	79.5	> 100	> 100	> 100										
COC(CN(C=O)[C@@H](c1ccc(Cl)cc1)c1cc2ccccc2o1)OC	31.4	35.3	41.9	31.8	41.2	34.3	27.6	31.4	45.6	44										
Nc1ccc(Oc2ccc(C34CC5CC(C3)CC(c3ccc(Oc6ccc(N)cc6)cc3)(C5)C4)cc2)cc1	> 100	> 100	> 60.4	21.6	38.7	36.4	> 62.8	> 45.4	25.7	> 100										
O=[N+]([O-])c1ccc2c(c1)nc(Cc1ccc(Cl)cc1)n2C[C@@H]1CCCN2CCCCC12 (stereo not given in full)	> 59	> 100	30.2	45.5	50.5	35.1	43.3	27.9	> 51.7	> 44.5										
NC(=S)N1N=C(c2ccccc2O)CC1c1ccccc1 (stereo not given)	> 100	39.3	50.6	43.8	> 100	36.1	72.4	43.4	22.8	> 100										
CCCN1C(=O)CSC1=Nc1ccc2cc3ccc(N=C4SCC(=O)N4CCC)cc3nc2c1	> 100	> 100	> 100	> 100	> 100	> 100	> 100	> 100	> 100	> 100	> 100	7.4	63.1	48.2	95.4	59.2	35.8	35.9	78.1	> 100
COc1cc([C@@H]2c3cc4c(cc3[C@@H](c3c(O)cc(O)c5c3O[C@H](c3ccc(O)c(O)c3)[C@H](OC(=O)c3cc(O)c(O)c(O)c3)C5)[C@H]3COC(=O)[C@H]23)OCO4)cc(OC)c1OC	> 100	> 100	> 100	> 100	> 100	> 100	> 100	> 100	> 77.8	16.2										
Cc1cnoc1NS(=O)(=O)c1ccc(Nc2nnc(/C=C/c3c(O)ccc4ccccc34)c(=O)n2N)cc1	> 100	71.6	66.9		> 100		> 100			> 100										
COC1CC(CC2CCC(C)C(C(C)C(=O)O)O2)OC2(OC(C)(C3CCC(C)(C4OC(C5OC(O)(CO)C(C)CC5C)CC4C)O3)CC2C)C1C (stereo not given)	17.9	8.39	> 66.1	11.9	5.67	10.3	> 35.2	11.9	49	17.7			2.58							
